Results on 29 compounds are retold here after patent US20240383904A1, “HETEROCYCLIC COMPOUNDS” (Hoffmann-La Roche Inc., priority 2021, published 2024).

Molecules are shown by their SMILES.

The assay addresses T1, MAGL (Homo sapiens, UniProt Q99685).
T1 sequence (Q99685 1-303): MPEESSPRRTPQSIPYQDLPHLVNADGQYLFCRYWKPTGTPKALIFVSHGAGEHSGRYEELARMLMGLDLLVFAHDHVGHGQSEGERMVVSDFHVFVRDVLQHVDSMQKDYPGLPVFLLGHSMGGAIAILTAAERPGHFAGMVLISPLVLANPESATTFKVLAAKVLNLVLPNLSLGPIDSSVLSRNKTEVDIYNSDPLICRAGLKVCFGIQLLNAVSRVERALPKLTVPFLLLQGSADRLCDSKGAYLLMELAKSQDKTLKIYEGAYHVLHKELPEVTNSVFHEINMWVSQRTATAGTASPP
The assay can be described thus: 2-AG assay: MAGL inhibitory activity by hydrolysis of 2-arachidonoylglycerol to arachidonic acid, followed by mass spectrometry. It counts as biochemical. The conditions noted are these: 15 min preincubation, 30 min reaction at RT, 8 μM 2-arachidonoylglycerol.
For `N#Cc1cc(CC2CC3(C2)CN(C(=O)N2CC4(COC(=O)N4)C2)C3)cnc1C(F)(F)F` [Example 243, 5-[[2-(6-oxo-7-oxa-2,5-diazaspiro[3.4]octane-2-carbonyl)-2-azaspiro[3.3]heptan-6-yl]methyl]-2-(trifluoromethyl)pyridine-3-carbonitrile], the IC50 (as a rule, the midpoint of a concentration-inhibition curve) is 0.6 nM.
The figure for `NC(=O)c1ccc(CC2CC3(C2)CN(C(=O)N2CC4(COC(=O)N4)C2)C3)cc1OC(F)(F)F` [Example 244, 4-[[2-(6-oxo-7-oxa-2,5-diazaspiro[3.4]octane-2-carbonyl)-2-azaspiro[3.3]heptan-6-yl]methyl]-2-(trifluoromethoxy)benz-amide] is 0.94 nM.
The figure for `NC(=O)c1cc(CC2CC3(C2)CN(C(=O)N2CC4(COC(=O)N4)C2)C3)ccc1OC(F)(F)F` [Example 245, 5-[[2-(6-oxo-7-oxa-2,5-diazaspiro[3.4]octane-2-carbonyl)-2-azaspiro[3.3]heptan-6-yl]methyl]-2-(trifluoromethoxy)benz-amide] is 1.51 nM.
The result for `Cn1nc(C(F)(F)F)cc1CC1CC2(C1)CN(C(=O)N1CC3(CCC(=O)N3)C1)C2` [Example 246, 2-[6-[[2-methyl-5-(trifluoromethyl)pyrazol-3-yl]methyl]-2-azaspiro[3.3]heptane-2-carbonyl]-2,5-diazaspiro[3.4]octan-6-one] reads 6.17 nM; that for `N#Cc1cnn(CC2CC3(C2)CN(C(=O)N2CC4(CCC(=O)N4)C2)C3)c1` [Example 247, 1-[[2-(6-oxo-2,5-diazaspiro[3.4]octane-2-carbonyl)-2-azaspiro[3.3]heptan-6-yl]methyl]pyrazole-4-carbonitrile], 311 nM.
`O=C1CCC2(CN(C(=O)N3CC4(CC(Cc5cnn(CC(F)(F)F)c5)C4)C3)C2)N1` [Example 248, 2-[6-[[1-(2,2,2-trifluoroethyl)pyrazol-4-yl]methyl]-2-azaspiro[3.3]heptane-2-carbonyl]-2,5-diazaspiro[3.4]octan-6-one]: the IC50 worked out at 32.8 nM.
On to `O=C1CCC2(CN(C(=O)N3CC4(CC(Cn5ccc(C(F)(F)F)cc5=O)C4)C3)C2)N1` [Example 249, 2-[6-[[2-oxo-4-(trifluoromethyl)-1-pyridyl]methyl]-2-azaspiro[3.3]heptane-2-carbonyl]-2,5-diazaspiro[3.4]octan-6-one], for which it took 2.16 nM to reach half-maximal inhibition (IC50).
The result for `N#Cc1ccc(CC2CC3(C2)CN(C(=O)N2CC4(CCC(=O)N4)C2)C3)c(F)c1` [Example 251, 3-fluoro-4-[[2-(6-oxo-2,5-diazaspiro[3.4]octane-2-carbonyl)-2-azaspiro[3.3]heptan-6-yl]methyl]benzonitrile] reads 0.6 nM; that for `O=C1CCC2(CN(C(=O)N3CC4(CC(Cc5cncc(S(=O)(=O)C(F)(F)F)c5)C4)C3)C2)N1` [Example 252, 2-[6-[[5-(trifluoromethylsulfonyl)-3-pyridyl]methyl]-2-azaspiro[3.3]heptane-2-carbonyl]-2,5-diazaspiro[3.4]octan-6-one], 9.83 nM.
The result for `O=C1COCC2(CN(C(=O)N3CC4(CC(Cc5cncc(S(=O)(=O)C(F)(F)F)c5)C4)C3)C2)N1` [Example 253, 2-[6-[[5-(trifluoromethylsulfonyl)-3-pyridyl]methyl]-2-azaspiro[3.3]heptane-2-carbonyl]-8-oxa-2,5-diazaspiro[3.5]nonan-6-one] reads 33.5 nM.
On to `O=C1COCC2(CN(C(=O)N3CC4(CC(Cc5cc(F)cc(S(=O)(=O)C(F)(F)F)c5)C4)C3)C2)N1` [Example 254, 2-[6-[[3-fluoro-5-(trifluoromethylsulfonyl)phenyl]methyl]-2-azaspiro[3.3]heptane-2-carbonyl]-8-oxa-2,5-diazaspiro[3.5]nonan-6-one], for which the IC50 came to 4.84 nM.
The result for `CS(=N)(=O)c1cc(CC2CC3(C2)CN(C(=O)N2CC4(CCC(=O)N4)C2)C3)cc(C(F)(F)F)c1` (centres unmarked) [Example 255, 2-[6-[[3-(methylsulfonimidoyl)-5-(trifluoromethyl)phenyl]methyl]-2-azaspiro[3.3]heptane-2-carbonyl]-2,5-diazaspiro[3.4]octan-6-one] reads 4.19 nM.
The figure for `O=C1CCC2(CN(C(=O)N3CC4(CCN(Cc5cccc(S(=O)(=O)C(F)(F)F)c5)C4)C3)C2)N1` [Example 256, 2-[7-[[3-(trifluoromethylsulfonyl)phenyl]methyl]-2,7-diazaspiro[3.4]octane-2-carbonyl]-2,5-diazaspiro[3.4]octan-6-one] is 26.9 nM; for `O=C1CCC2(CN(C(=O)N3CC4(CC(Cc5cc(C(F)F)[nH]n5)C4)C3)C2)N1` [Example 257, 2-[6-[[5-(difluoromethyl)-1H-pyrazol-3-yl]methyl]-2-azaspiro[3.4]heptane-2-carbonyl]-2,5-diazaspiro[3.4]octan-6-one] it is 16.5 nM; for `O=C1CCC2(CN(C(=O)N3CC4(CN(Cc5ccc(S(=O)(=O)C(F)(F)F)cc5F)C4)C3)C2)N1` [Example 258, 2-[6-[[2-fluoro-4-(trifluoromethylsulfonyl)phenyl]methyl]-2,6-diazaspiro[3.4]heptane-2-carbonyl]-2,5-diazaspiro[3.4]octan-6-one] it is 18.6 nM.
For the compound `O=C1CCC2(CN(C(=O)N3CC4(CC(Cn5cc(C(F)(F)F)ccc5=O)C4)C3)C2)N1` [Example 259, 2-[6-[[2-oxo-5-(trifluoromethyl)-1-pyridyl]methyl]-2-azaspiro[3.3]heptane-2-carbonyl]-2,5-diazaspiro[3.4]octan-6-one], the IC50 came to 25.9 nM.
The result for `O=C1COCC2(CN(C(=O)N3CC4(CCN(Cc5cccc(S(=O)(=O)C(F)(F)F)c5)C4)C3)C2)N1` [Example 260, 2-[7-[[3-(trifluoromethylsulfonyl)phenyl]methyl]-2,7-diazaspiro[3.4]octane-2-carbonyl]-8-oxa-2,5-diazaspiro[3.5]nonan-6-one] reads 80.7 nM; that for `N#Cc1ncc(CC2CC3(C2)CN(C(=O)N2CC4(COC(=O)N4)C2)C3)cc1C(F)(F)F` [Example 261, 5-[[2-(6-oxo-7-oxa-2,5-diazaspiro[3.4]octane-2-carbonyl)-2-azaspiro[3.3]heptan-6-yl]methyl]-3-(trifluoromethyl)pyridine-2-carbonitrile], 0.43 nM; that for `O=C1CCC2(CN(C(=O)N3CC4(CC(Cc5ccc(S(=O)(=O)C(F)(F)F)cn5)C4)C3)C2)N1` [Example 262, 2-[6-[[5-(trifluoromethylsulfonyl)-2-pyridyl]methyl]-2-azaspiro[3.3]heptane-2-carbonyl]-2,5-diazaspiro[3.4]octan-6-one], 1.06 nM.
The result for `O=C1CCCC2(CN(C(=O)N3CC4(CC(Cc5ccc(S(=O)(=O)C(F)(F)F)cn5)C4)C3)C2)N1` [Example 263, 2-[6-[[5-(trifluoromethylsulfonyl)-2-pyridyl]methyl]-2-azaspiro[3.3]heptane-2-carbonyl]-2,5-diazaspiro[3.5]nonan-6-one] reads 183 nM.
The result for `O=C1COCC2(CN(C(=O)N3CC4(CC(Cc5ccc(S(=O)(=O)C(F)(F)F)cn5)C4)C3)C2)N1` [Example 264, 2-[6-[[5-(trifluoromethylsulfonyl)-2-pyridyl]methyl]-2-azaspiro[3.3]heptane-2-carbonyl]-8-oxa-2,5-diazaspiro[3.5]nonan-6-one] reads 5.51 nM.
Consider `N=S(=O)(c1ccc(CC2CC3(C2)CN(C(=O)N2CC4(CCC(=O)N4)C2)C3)c(F)c1)C(F)(F)F` (centres unmarked) [Example 265, 2-[6-[[2-fluoro-4-(trifluoromethylsulfoni-midoyl)phenyl]methyl]-2-azaspiro[3.3]heptane-2-carbonyl]-2,5-diazaspiro[3.5]octan-6-one], for which half-maximal inhibition (IC50) required 0.48 nM.
The result for `O=C1CCCC2(CN(C(=O)N3CC4(CCN(Cc5cccc(S(=O)(=O)C(F)(F)F)c5)C4)C3)C2)N1` [Example 266, 2-[7-[[3-(trifluoromethylsulfonyl)phenyl]methyl]-2,7-diazaspiro[3.4]octane-2-carbonyl]-2,5-diazaspiro[3.5]nonan-6-one] reads 1380 nM.
The result for `O=C1CCCC2(CN(C(=O)N3CC4(CN(Cc5ccc(S(=O)(=O)C(F)(F)F)cc5F)C4)C3)C2)N1` [Example 267, 2-[6-[[2-fluoro-4-(trifluoromethylsulfonyl)phenyl]methyl]-2,6-diazaspiro[3.3]heptane-2-carbonyl]-2,5-diazaspiro[3.5]nonan-6-one] reads 1240 nM; that for `CS(=O)(=O)c1cc(CC2CC3(C2)CN(C(=O)N2CC4(CCCC(=O)N4)C2)C3)cc(C(F)(F)F)c1` [Example 268, 2-[6-[[3-methylsulfonyl-5-(trifluoromethyl)phenyl]methyl]-2-azaspiro[3.3]heptane-2-carbonyl]-2,5-diazaspiro[3.5]nonan-6-one], 301 nM.
The figure for `O=C1CCCC2(CN(C(=O)N3CC4(CC(Cc5ccc(S(=O)(=O)C6CC6)cc5)C4)C3)C2)N1` [Example 269, 2-[6-[(4-cyclopropylsulfonylphe-nyl)methyl]-2-azaspiro[3.3]heptane-2-carbonyl]-2,5-diazaspiro[3.5]nonan-6-one] is 473 nM; for `N#Cc1ccc(CC2CC3(C2)CN(C(=O)N2CC4(CCCC(=O)N4)C2)C3)cc1C(F)(F)F` [Example 270] it is 72.4 nM; for `N#Cc1cc(CC2CC3(C2)CN(C(=O)N2CC4(CCCC(=O)N4)C2)C3)ccc1C(F)(F)F` [Example 271, 5-[[2-(6-oxo-2,5-diazaspiro[3.5]nonane-2-carbonyl)-2-azaspiro[3.3]heptan-6-yl]methyl]-2-(trifluoromethyl)benzoni-trile] it is 31.6 nM.
`N#Cc1cc(CC2CC3(C2)CN(C(=O)N2CC4(CCCC(=O)N4)C2)C3)cnc1C(F)(F)F` [Example 272, 5-[[2-(6-oxo-2,5-diazaspiro[3.5]nonane-2-carbonyl)-2-azaspiro[3.3]heptan-6-yl]methyl]-2-(trifluoromethyl)pyridine-3-carbonitrile] returned an IC50 of 795 nM.
